Consider nine molecules from BindingDB's records for doi:10.7270/Q24F1P57 (Nmmlsc, 2009).

pEC50: −log10 of the molar value.

This test concerns the target Induced myeloid leukemia cell differentiation protein Mcl-1 (Homo sapiens, UniProt Q07820). The test can be described thus: Mcl-1/Bim interaction regulators – biochemical, bead-based flow cytometry, multiplex, HTS hits, confirmation (AID 2086). A general note: Flow cytometry measures light scatter and fluorescence of single cells or particles in a stream.
Setting [1] is: inactive by the depositor's call.

Sequence of Induced myeloid leukemia cell differentiation protein Mcl-1 (Q07820 whole entry): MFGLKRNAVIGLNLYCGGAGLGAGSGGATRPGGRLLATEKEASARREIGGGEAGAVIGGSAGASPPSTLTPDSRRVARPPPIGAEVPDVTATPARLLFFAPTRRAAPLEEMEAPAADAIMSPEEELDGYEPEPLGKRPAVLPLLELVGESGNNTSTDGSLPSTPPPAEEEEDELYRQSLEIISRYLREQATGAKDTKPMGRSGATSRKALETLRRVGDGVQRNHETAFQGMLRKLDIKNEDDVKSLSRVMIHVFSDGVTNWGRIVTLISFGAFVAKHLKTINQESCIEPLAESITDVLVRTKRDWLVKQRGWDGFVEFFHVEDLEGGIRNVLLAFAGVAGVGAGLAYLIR

Broadly, the pEC50 is −log10 of the EC50, conventionally taken in molar units. Under setting [1], `O=C(NCc1ccccc1)c1ccc2nc(-c3ccco3)c(-c3ccco3)nc2c1` [2,3-bis(furan-2-yl)-N-(phenylmethyl)quinoxaline-6-carboxamide] showed a pEC50 of 4.80.
Under setting [1], `COc1ccc(N2C(=O)C(Cl)=C(Oc3cccc(OC)c3)C2=O)cc1` [3-chloro-4-(3-methoxyphenoxy)-1-(4-methoxyphenyl)-1H-pyrrole-2,5-dione] gave a pEC50 of 5.78.
Molecule `CNC1CCC(Br)CC(C(=O)C=Cc2cccc(OC)c2OC)C1=O` (centres undefined) [4-bromo-2-[(E)-3-(2,3-dimethoxyphenyl)-1-oxoprop-2-enyl]-7-(methylamino)-1-cycloheptanone] showed a pEC50 under setting [1] of 4.43.
As to `COc1cc(/N=C2\SSNC2Cl)c(OC)cc1Cl` (centres undefined) [4-chloro-N-(4-chloro-2,5-dimethoxyphenyl)-5-dithiazolidinimine], the pEC50 under setting [1] was 4.67.
In the case of `Cc1ccc(-c2nc3c(c(=O)[nH]c(=O)n3Cc3ccccc3)n2C)o1` [7-methyl-8-(5-methyl-2-furanyl)-3-(phenylmethyl)purine-2,6-dione], under setting [1], the negative-log EC50 (pEC50) is 4.47.
The molecule `O=C1NC(=O)C2(Cc3c(nc4ccccn4c3=O)N3CCCCCC32)C(=O)N1Cc1ccccc1` (centres undefined) [MLS000083668] had a pEC50 under setting [1] of 5.50.
Under setting [1], `COc1ccc(CCNC(=O)c2ccc3nc(-c4ccco4)c(-c4ccco4)nc3c2)cc1OC` [N-[2-(3,4-dimethoxyphenyl)ethyl]-2,3-di-2-furylquinoxaline-6-carboxamide] gave a pEC50 of 4.83.
`Cc1cc2nn(-c3cccc4ccccc34)nc2cc1N` [SMR000076237] gave a negative logarithm of the EC50 (pEC50) under setting [1] of 5.65.
Consider `Cc1ccc(C=NNC(=O)CSc2nnc(-c3ccc(Cl)cc3)n2-c2ccccc2)o1` [SMR000218122], for which the pEC50 was 5.11.
